The record followed here is article PMC6207662, “Postprandial glycaemia-lowering effect of a green tea cultivar Sunrouge and cultivar-specific metabolic profiling for determining bioactivity-related ingredients” (Scientific Reports, 2018).

Assay [1] concerns postprandial blood glucose level. In words: Starch tolerance test in mice (postprandial blood glucose). It is filed as in vivo, mice (male ICR). Conditions: compound 500 mg/kg b.w. with soluble starch 2,000 mg/kg b.w., Supplementary Fig. S5. The procedure: Nine-week-old male ICR mice were purchased from Kyudo Company (Saga, Japan). All mice were housed and maintained in a temperature and humidity controlled room with a 12-h light-dark cycle (light from 8 am to 8 pm). All animal studies were performed in accordance with the law (protocol no. 105) and notification (protocol no. 6) of the Japanese government for the welfare of experimental animals. The study protocol was approved by the Animal Care and Use Committee, Kyushu University (Kyushu University, Scientific Research Promotion Division). Mice were randomly divided into 3 groups (n = 8) with equivalent mean body weight and starved overnight. Mice were orally administered with soluble starch (2,000 mg/kg b.w.) (Wako, Osaka, Japan) alone, or in combination with a test sample. All solutions were made in distilled water. Blood was sampled from the tail vein at before (t = 0), 30, 60, 90, 120 and 150 min after administration. The blood glucose level was measured with the Medisafe Mini GR-102 (Terumo Co., Tokyo, Japan) and the areas under the curves (AUC) were calculated.

For assay [2], the target named is T1, α-Glucosidase from Saccharomyces cerevisiae (Saccharomyces cerevisiae, UniProt P53341).
T1 construct: purchased Sigma-Aldrich
Nature of the assay: Assay of α-glucosidase activity (cell-free, QuantiChrom kit). It is filed as biochemical. To be noted: for IC50: cell-free system; for order of α-glucosidase inhibitory rate: 10 μM, n=3, Supplementary Fig. S4; for enhancement of α-glucosidase inhibitory ability by O-methylation (IC50 ratio non-methylated/methylated): IC50 of parent catechin / IC50 of its 3”-O-methylated form. The procedure:
α-Glucosidase from Saccharomyces cerevisiae (Sigma-Aldrich) was dissolved in phosphate buffered saline (PBS) at a concentration of 0.01 mg/mL. Tea extracts were diluted 1:10 with distilled water. Tea extracts or various concentrations of flavonoids in DMSO were mixed 1:1 with the α-glucosidase solution. The α-glucosidase activity of the mixture was measured by the QuantiChrom™ α-Glucosidase Assay Kit (Bio Assay Systems, Hayward, CA, USA) according to the manufacturer’s instructions.

T1 sequence (P53341 whole entry): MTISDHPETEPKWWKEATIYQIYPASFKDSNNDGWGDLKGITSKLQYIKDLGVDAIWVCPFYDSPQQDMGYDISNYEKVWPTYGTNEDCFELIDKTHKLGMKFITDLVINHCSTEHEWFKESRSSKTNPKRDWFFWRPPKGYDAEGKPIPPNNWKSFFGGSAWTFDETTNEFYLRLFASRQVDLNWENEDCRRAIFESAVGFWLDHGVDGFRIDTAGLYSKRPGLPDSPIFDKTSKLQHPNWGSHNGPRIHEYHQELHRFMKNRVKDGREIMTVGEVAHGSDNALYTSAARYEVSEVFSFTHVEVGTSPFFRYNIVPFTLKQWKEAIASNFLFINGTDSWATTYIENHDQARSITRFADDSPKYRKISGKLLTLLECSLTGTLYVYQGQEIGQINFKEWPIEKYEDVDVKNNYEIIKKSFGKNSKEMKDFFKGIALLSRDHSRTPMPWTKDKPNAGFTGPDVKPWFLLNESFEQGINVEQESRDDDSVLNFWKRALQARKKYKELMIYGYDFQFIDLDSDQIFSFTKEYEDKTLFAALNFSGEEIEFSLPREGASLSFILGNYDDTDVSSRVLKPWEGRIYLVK

Take `O=c1c(O)c(-c2cc(O)c(O)c(O)c2)oc2cc(O)cc(O)c12` [Myr, myricetin]: the “elevation of postprandial blood glucose level in oral starch tolerance test” value in assay [1] was “suppressed the elevation of postprandial blood glucose level”. The compound also had an IC50 in assay [2] of 4.4 µM.

On to `Oc1cc(O)c2cc(O)c(-c3cc(O)c(O)c(O)c3)[o+]c2c1` [Del, delphinidin], for which the IC50 in assay [2] was found to be 31.6 µM.

Consider `CCNC(=O)CC[C@H](N)C(=O)O` [theanine, L-theanine], for which the “effect on the activity of α-glucosidase” value in assay [2] (Supplementary Fig. S2) was “elevated the activity of α-glucosidase”.

In the case of `O=c1c(OC2O[C@H](CO)[C@@H](O)[C@H](O)[C@H]2O)c(-c2cc(O)c(O)c(O)c2)oc2cc(O)cc(O)c12` (some centres unmarked) [Myr-glu, myricetin-3-O-glucoside], in assay [2], the 50% inhibitory concentration (IC50) is > 100 µM.

Take epigallocatechin-3-O-gallate [EGCG]: in assay [1], the “elevation of postprandial blood glucose level in oral starch tolerance test” value is reported as “suppressed the elevation of postprandial blood glucose level”. Moreover, in assay [2], the “order of α-glucosidase inhibitory rate” value is on record as “EGCG3”Me > EGCG > ECG3”Me > ECG”, the “enhancement of α-glucosidase inhibitory ability by O-methylation (IC50 ratio non-methylated/methylated)” value was determined as 1.6 fold and the IC50 was determined as 13.3 µM.

Turning to `OC[C@H]1O[C@@H](Oc2cc3c(O)cc(O)cc3[o+]c2-c2cc(O)c(O)c(O)c2)[C@H](O)[C@@H](O)[C@@H]1O` [Del-glu, delphinidin-3-O-glucoside], in assay [2], the half-maximal inhibitory concentration (IC50) is > 100 µM.

Consider epicatechin-3-O-gallate [ECG], for which, in assay [2], the “order of α-glucosidase inhibitory rate” value is “EGCG3”Me > EGCG > ECG3”Me > ECG”, the “enhancement of α-glucosidase inhibitory ability by O-methylation (IC50 ratio non-methylated/methylated)” value is reported as 4.2 fold and it took 61.1 µM to reach half-maximal inhibition (IC50).

Consider “epigallocatechin-3-O-(3-O-methyl) gallate [EGCG3”Me]”, for which, in assay [2], the “order of α-glucosidase inhibitory rate” value was “EGCG3”Me > EGCG > ECG3”Me > ECG” and the midpoint of inhibition, the IC50, lay at 8.1 µM.

Consider `COc1cc(C(=O)O[C@@H]2Cc3c(O)cc(O)cc3O[C@@H]2c2ccc(O)c(O)c2)cc(O)c1O` [ECG3”Me, epicatechin-3-O-(3-O-methyl) gallate], for which, in assay [2], the “order of α-glucosidase inhibitory rate” value is “EGCG3”Me > EGCG > ECG3”Me > ECG” and the IC50 was found to be 14.7 µM.

Broadly, the IC50 is the concentration that inhibits the measured activity by half.
